Laboratory results published in PubChem BioAssay AID1963846 (Molecular Pharmacology Branch, DTP, NCI, 2024).

System: 454973-116-R2-J3-PDC complex spheroid viability
Assay: Anticancer human tumor 454973-116-R2-J3-PDC patient-derived pancreatic carcinoma cell line growth inhibition [POLQ]
Conditions: for IC50: curve of first compound; for viability, T/C: stronger effect = lower value
Summary of the method: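 Three-cell-type spheroids modelling solid tumor plus stroma served as the readout system; POL inhibitors were tested individually and in combination, concentration ranges set by clinical Cmax where known.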

[1] = second compound 0.0316 µM, first compound 0.0316 µM
[2] = second compound 0.0316 µM, first compound 0.1 µM
[3] = second compound 0.0316 µM, first compound 0.316 µM
[4] = second compound 0.0316 µM, first compound 1 µM
[5] = second compound 0.0316 µM, first compound 3.16 µM
[6] = second compound 0.0316 µM, first compound 10 µM
[7] = second compound 0.1 µM, first compound 0.0316 µM
[8] = second compound 0.1 µM, first compound 0.1 µM
[9] = second compound 0.1 µM, first compound 0.316 µM
[10] = second compound 0.1 µM, first compound 1 µM
[11] = second compound 0.1 µM, first compound 3.16 µM
[12] = second compound 0.1 µM, first compound 10 µM
[13] = second compound 0.316 µM, first compound 0.0316 µM
[14] = second compound 0.316 µM, first compound 0.1 µM
[15] = second compound 0.316 µM, first compound 0.316 µM
[16] = second compound 0.316 µM, first compound 1 µM
[17] = second compound 0.316 µM, first compound 3.16 µM
[18] = second compound 0.316 µM, first compound 10 µM
[19] = second compound 1 µM, first compound 0.0316 µM
[20] = second compound 1 µM, first compound 0.1 µM
[21] = second compound 1 µM, first compound 0.316 µM
[22] = second compound 1 µM, first compound 1 µM
[23] = second compound 1 µM, first compound 3.16 µM
[24] = second compound 1 µM, first compound 10 µM
[25] = second compound 3.16 µM, first compound 0.0316 µM
[26] = second compound 3.16 µM, first compound 0.1 µM
[27] = second compound 3.16 µM, first compound 0.316 µM
[28] = second compound 3.16 µM, first compound 1 µM
[29] = second compound 3.16 µM, first compound 3.16 µM
[30] = second compound 3.16 µM, first compound 10 µM
[31] = second compound 10 µM, first compound 0.0316 µM
[32] = second compound 10 µM, first compound 0.1 µM
[33] = second compound 10 µM, first compound 0.316 µM
[34] = second compound 10 µM, first compound 1 µM
[35] = second compound 10 µM, first compound 3.16 µM
[36] = second compound 10 µM, first compound 10 µM
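Further: spheroids exposed to drugs for seven days before measurement.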
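Wherever viability, T/C is given: percent viability relative to DMSO vehicle control wells taken as 100%.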

With C=CC(=O)N1CCN(c2nc(=O)n(-c3c(C)ccnc3C(C)C)c3nc(-c4c(O)cccc4F)c(F)cc23)C(C)C1 (centres undefined) + Nc1ccc(C#CCN(C(=O)Cc2ncc(C(F)(F)F)cc2C(F)(F)F)c2ccc(F)cc2)nn1 the IC50 (second compound 0.0316 µM) was > 10 µM, the IC50 (second compound 0.1 µM) was > 10 µM and the IC50 (second compound 0.316 µM) was > 10 µM. The IC50 (second compound 1 µM) was > 10 µM, the IC50 (second compound 3.16 µM) was > 10 µM and the IC50 (second compound 10 µM) was > 10 µM. For the same compound, the viability, T/C [1] was 103%, the viability, T/C [2] was 106% and the viability, T/C [3] was 110%. The viability, T/C [4] was 111%, the viability, T/C [5] was 113% and the viability, T/C [6] was 113%. The viability, T/C [7] was 103%, the viability, T/C [8] was 97.1% and the viability, T/C [9] was 110%. It also gave a viability, T/C [10] of 114%, a viability, T/C [11] of 111% and a viability, T/C [12] of 117%. It also gave a viability, T/C [13] of 102%, a viability, T/C [14] of 106% and a viability, T/C [15] of 107%. For the same compound, the viability, T/C [16] was 106%, the viability, T/C [17] was 124% and the viability, T/C [18] was 116%. It also gave a viability, T/C [19] of 102%, a viability, T/C [20] of 110% and a viability, T/C [21] of 109%. The viability, T/C [22] was 123%, the viability, T/C [23] was 121% and the viability, T/C [24] was 114%. The viability, T/C [25] was 111%, the viability, T/C [26] was 118% and the viability, T/C [27] was 120%. For the same compound, the viability, T/C [28] was 123%, the viability, T/C [29] was 125% and the viability, T/C [30] was 114%. For the same compound, the viability, T/C [31] was 118%, the viability, T/C [32] was 113% and the viability, T/C [33] was 116%. The viability, T/C [34] was 123%, the viability, T/C [35] was 137% and the viability, T/C [36] was 116%.
For CC(C)n1c(=O)n(C)c2cnc3cc(F)c(-c4ccc(OCCCN5CCCCC5)nc4)cc3c21 + Nc1ccc(C#CCN(C(=O)Cc2ncc(C(F)(F)F)cc2C(F)(F)F)c2ccc(F)cc2)nn1, the IC50 (second compound 0.0316 µM) was > 10 µM, the IC50 (second compound 0.1 µM) was > 10 µM and the IC50 (second compound 0.316 µM) was > 10 µM. The IC50 (second compound 1 µM) was > 10 µM, the IC50 (second compound 3.16 µM) was > 10 µM and the IC50 (second compound 10 µM) was > 10 µM. It also gave a viability, T/C [1] of 101%, a viability, T/C [2] of 96% and a viability, T/C [3] of 101%. For the same compound, the viability, T/C [4] was 96.7%, the viability, T/C [5] was 102% and the viability, T/C [6] was 75.8%. It also gave a viability, T/C [7] of 99.3%, a viability, T/C [8] of 100% and a viability, T/C [9] of 103%. It also gave a viability, T/C [10] of 115%, a viability, T/C [11] of 99.6% and a viability, T/C [12] of 76.1%. It also gave a viability, T/C [13] of 102%, a viability, T/C [14] of 102% and a viability, T/C [15] of 117%. It also gave a viability, T/C [16] of 103%, a viability, T/C [17] of 101% and a viability, T/C [18] of 83.8%. It also gave a viability, T/C [19] of 114%, a viability, T/C [20] of 106% and a viability, T/C [21] of 108%. The viability, T/C [22] was 114%, the viability, T/C [23] was 106% and the viability, T/C [24] was 74.7%. The viability, T/C [25] was 111%, the viability, T/C [26] was 113% and the viability, T/C [27] was 105%. It also gave a viability, T/C [28] of 114%, a viability, T/C [29] of 101% and a viability, T/C [30] of 83.8%. The viability, T/C [31] was 123%, the viability, T/C [32] was 107% and the viability, T/C [33] was 114%. For the same compound, the viability, T/C [34] was 114%, the viability, T/C [35] was 104% and the viability, T/C [36] was 76.9%.
